Data: patent US9708295B2, “Substituted 2-aminopyridine protein kinase inhibitor” (CHIA TAI TIANQING PHARMACEUTICAL GROUP CO., LTD, priority 2013, dated 2017)

Legend:
[1] = In vivo pharmacokinetics in SD rats; conditions: Sprague-Dawley, rat, po, 5 mg/kg
CYP-3A4 = CYP-3A4 (Homo sapiens (Human), UniProt P08684); assay: Inhibition of CYP-3A4 (midazolam substrate); type: in vitro ADME; conditions: for IC50: substrate midazolam, read-out: Inhibition to CYP-3A4, 3A4_Midazolam
in vivo = conditions: Sprague-Dawley, rat, po, 5 mg/kg
[2] = tested on: human non-small cell lung carcinoma NCI-H2228; assay: Therapeutic effect on human non-small cell lung carcinoma NCI-H2228 xenografts in nude mice; type: in vivo; conditions: D0-13 once a day; for Average tumor volume (mm^3) D0: D0 baseline at grouping
[3] = target: G1269S mutated ALK kinase (Homo sapiens (Human), UniProt Q9UM73, G1269S); assay: biochemical
Sequence of G1269S mutated ALK kinase (Q9UM73 19-1620 G1269S): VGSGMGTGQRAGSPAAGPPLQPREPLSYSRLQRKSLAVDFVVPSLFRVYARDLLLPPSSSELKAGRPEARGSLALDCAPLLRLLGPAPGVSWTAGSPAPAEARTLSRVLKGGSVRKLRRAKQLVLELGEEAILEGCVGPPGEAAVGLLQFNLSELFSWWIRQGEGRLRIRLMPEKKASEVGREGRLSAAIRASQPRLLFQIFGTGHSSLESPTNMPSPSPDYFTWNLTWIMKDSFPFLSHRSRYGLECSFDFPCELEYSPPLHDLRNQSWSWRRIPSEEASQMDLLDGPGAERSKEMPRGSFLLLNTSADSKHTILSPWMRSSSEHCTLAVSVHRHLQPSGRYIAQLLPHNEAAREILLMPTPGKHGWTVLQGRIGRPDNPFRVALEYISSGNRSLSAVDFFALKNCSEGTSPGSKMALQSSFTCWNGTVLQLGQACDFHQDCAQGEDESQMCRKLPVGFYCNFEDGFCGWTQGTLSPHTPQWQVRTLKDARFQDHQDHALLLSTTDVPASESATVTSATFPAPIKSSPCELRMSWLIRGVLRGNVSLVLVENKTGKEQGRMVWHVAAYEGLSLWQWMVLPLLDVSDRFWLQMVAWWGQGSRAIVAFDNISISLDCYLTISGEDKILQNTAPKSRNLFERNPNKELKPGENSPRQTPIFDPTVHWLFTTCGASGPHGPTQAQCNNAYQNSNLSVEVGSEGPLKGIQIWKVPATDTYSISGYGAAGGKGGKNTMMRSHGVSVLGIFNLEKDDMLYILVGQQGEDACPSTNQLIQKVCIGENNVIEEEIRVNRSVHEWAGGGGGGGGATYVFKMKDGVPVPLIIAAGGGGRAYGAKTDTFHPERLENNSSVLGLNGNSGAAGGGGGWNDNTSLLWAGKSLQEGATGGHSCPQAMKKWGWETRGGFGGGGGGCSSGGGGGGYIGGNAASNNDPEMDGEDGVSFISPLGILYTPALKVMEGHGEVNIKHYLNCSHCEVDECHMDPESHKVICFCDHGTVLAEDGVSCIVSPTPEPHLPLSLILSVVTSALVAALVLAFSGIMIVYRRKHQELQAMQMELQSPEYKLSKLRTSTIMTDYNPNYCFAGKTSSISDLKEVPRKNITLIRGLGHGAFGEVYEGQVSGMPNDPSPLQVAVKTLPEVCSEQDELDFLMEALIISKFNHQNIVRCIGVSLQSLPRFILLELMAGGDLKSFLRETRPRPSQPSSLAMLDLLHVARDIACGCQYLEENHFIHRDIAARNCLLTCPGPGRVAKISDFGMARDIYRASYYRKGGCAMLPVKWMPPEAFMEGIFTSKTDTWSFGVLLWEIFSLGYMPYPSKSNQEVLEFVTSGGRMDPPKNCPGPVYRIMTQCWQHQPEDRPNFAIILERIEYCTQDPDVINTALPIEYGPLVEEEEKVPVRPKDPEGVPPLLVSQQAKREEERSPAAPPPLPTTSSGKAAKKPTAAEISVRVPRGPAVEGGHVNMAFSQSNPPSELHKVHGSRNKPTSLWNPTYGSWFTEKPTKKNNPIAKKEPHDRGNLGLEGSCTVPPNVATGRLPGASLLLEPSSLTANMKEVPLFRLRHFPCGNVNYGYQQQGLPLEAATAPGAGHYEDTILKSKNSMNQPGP

ALK kinase = ALK kinase (Homo sapiens (Human), UniProt Q9UM73); conditions: read-out: IC50 (nM), ALK inhibition activity; HTRF, ATP at Km
Sequence of ALK kinase (Q9UM73 19-1620): as the sequence (Q9UM73 19-1620 G1269S) above, with S1251G counted along it

[4] = target: L1196M mutated ALK kinase (Homo sapiens (Human), UniProt Q9UM73, L1196M); assay: biochemical
Sequence of L1196M mutated ALK kinase (Q9UM73 19-1620 L1196M): as the sequence (Q9UM73 19-1620 G1269S) above, with L1178M, S1251G counted along it

Sequence of CYP-3A4 (P08684 whole entry): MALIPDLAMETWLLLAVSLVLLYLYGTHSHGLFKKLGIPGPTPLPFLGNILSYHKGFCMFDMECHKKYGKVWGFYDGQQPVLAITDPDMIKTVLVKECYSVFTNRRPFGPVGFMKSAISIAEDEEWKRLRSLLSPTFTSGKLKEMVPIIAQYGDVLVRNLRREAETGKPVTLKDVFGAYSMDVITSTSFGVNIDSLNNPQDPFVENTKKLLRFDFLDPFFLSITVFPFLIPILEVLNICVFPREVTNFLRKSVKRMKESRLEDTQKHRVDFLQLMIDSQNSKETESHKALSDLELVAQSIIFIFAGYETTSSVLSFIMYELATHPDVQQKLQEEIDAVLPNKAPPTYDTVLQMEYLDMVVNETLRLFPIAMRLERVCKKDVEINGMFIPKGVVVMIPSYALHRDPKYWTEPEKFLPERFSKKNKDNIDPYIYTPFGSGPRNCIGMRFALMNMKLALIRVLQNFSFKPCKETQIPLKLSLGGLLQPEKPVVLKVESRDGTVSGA

SMILES	AUC(0-inf) [1] [ng·h/mL]	Cmax [1] [ng/mL]	Tmax [1] [h]	half-life [1] [h]	inhibition against CYP-3A4 (in words) (CYP-3A4)	IC50 (CYP-3A4) [µM]	AUC(0-inf) (in vivo) [ng·h/mL]	Cmax (in vivo) [ng/mL]	Tmax (in vivo) [h]	half-life (in vivo) [h]	Average tumor volume (mm^3) D0 ([2]; 12.5 mg/kg PO) [mm^3]	% Inhibition rate D21 ([2]; 12.5 mg/kg PO, D21) [%]	% T/C D21 ([2]; 12.5 mg/kg PO, D21) [%]	Average tumor volume (mm^3) D21 ([2]; 12.5 mg/kg PO, D21) [mm^3]	Average tumor volume (mm^3) D0 ([2]; 25 mg/kg PO) [mm^3]	Average tumor volume (mm^3) D21 ([2]; 25 mg/kg PO, D21) [mm^3]	% T/C D21 ([2]; 25 mg/kg PO, D21, tumor regression formula) [%]	IC50 [3] [µM]	IC50 (ALK kinase) [nM]	IC50 [4] [µM]
CCOc1cc(N2CCNC[C@@H]2C)ncc1-c1cnc(N)c(O[C@H](C)c2c(Cl)ccc(F)c2Cl)c1 [Example 53, 5-((R)-1-(2,6-dichloro-3-fluorophenyl)ethoxy)-4′-ethoxy-6′-((S)-2-methylpiperazin-1-yl)-[3,3′-bipyridin]-6-amine]	830	62.6	3.33	4.75																
COc1cc(-c2cnc(N)c(O[C@H](C)c3c(Cl)ccc(F)c3Cl)c2)cnc1C1=CCNCC1 [Example 30, (R)-5-(1-(2,6-dichloro-3-fluorophenyl)ethoxy)-5′-methoxy-1″,2″,3″,6″-tetrahydro-[3,3′:6′,4″-terpyridin]-6-amine]					no significant inhibition	> 10	1270	113	3	4.43										
COc1cc(N2CCNC[C@@H]2C)ncc1-c1cnc(N)c(O[C@H](C)c2c(Cl)ccc(F)c2Cl)c1 [Example 27, 5-((R)-1-(2,6-dichloro-3-fluorophenyl)ethoxy)-4′-methoxy-6′-((S)-2-methylpiperazin-1-yl)-[3,3′-bipyridin]-6-amine]	601	69.7	3.67	5.45	no significant inhibition	> 10					134.3	78	22	394.8	131.0	21.7	−83	0.0613 ± 0.0079	1.96	0.0351 ± 0.0053
